Consider ten molecules from patent US20230355571A1, “METHOD FOR TREATING VIRAL AND BACTERIAL INFECTION THROUGH INHALATION THERAPY” (priority 2020, published 2023).

Series [1] has as its system mice. To be noted: intraperitoneal 5 and 10 mg/kg-d pretreatment; cited from earlier work.
For series [2], the system named is mice. Particulars: oral, mice, 28-d; cited from earlier work.
The target in series [3] is human TRPM8 (hTRPM8) (Homo sapiens, UniProt Q7Z2W7). To be noted: cited from earlier work.
Series [4] relates to monocytes. To be noted: cited from earlier work.
Series [5] has as its system mice. Put plainly: NOAEL, oral, mice. Particulars: for factor NOAEL over daily inhaled dose: 2 mL/dose 4 times per day of Table A2 composition; for NOAEL for a 62 kg adult human: extrapolated from mouse NOAEL.
In series [6] the test system is blood monocytes. To be noted: cited from earlier work.
Series [7] deals with patients with reversible obstructive ventilatory disorders. To be noted: cited from earlier work.
Series [8] deals with superoxide, super oxide dismutase, hydrogen peroxide, 8-isoprostanes. To be noted: cited from earlier work.
The target of series [9] is T1, TRPV1 (Homo sapiens, UniProt Q8NER1). Particulars: cited from earlier work.
Target sequence in this assay (Q8NER1 whole entry): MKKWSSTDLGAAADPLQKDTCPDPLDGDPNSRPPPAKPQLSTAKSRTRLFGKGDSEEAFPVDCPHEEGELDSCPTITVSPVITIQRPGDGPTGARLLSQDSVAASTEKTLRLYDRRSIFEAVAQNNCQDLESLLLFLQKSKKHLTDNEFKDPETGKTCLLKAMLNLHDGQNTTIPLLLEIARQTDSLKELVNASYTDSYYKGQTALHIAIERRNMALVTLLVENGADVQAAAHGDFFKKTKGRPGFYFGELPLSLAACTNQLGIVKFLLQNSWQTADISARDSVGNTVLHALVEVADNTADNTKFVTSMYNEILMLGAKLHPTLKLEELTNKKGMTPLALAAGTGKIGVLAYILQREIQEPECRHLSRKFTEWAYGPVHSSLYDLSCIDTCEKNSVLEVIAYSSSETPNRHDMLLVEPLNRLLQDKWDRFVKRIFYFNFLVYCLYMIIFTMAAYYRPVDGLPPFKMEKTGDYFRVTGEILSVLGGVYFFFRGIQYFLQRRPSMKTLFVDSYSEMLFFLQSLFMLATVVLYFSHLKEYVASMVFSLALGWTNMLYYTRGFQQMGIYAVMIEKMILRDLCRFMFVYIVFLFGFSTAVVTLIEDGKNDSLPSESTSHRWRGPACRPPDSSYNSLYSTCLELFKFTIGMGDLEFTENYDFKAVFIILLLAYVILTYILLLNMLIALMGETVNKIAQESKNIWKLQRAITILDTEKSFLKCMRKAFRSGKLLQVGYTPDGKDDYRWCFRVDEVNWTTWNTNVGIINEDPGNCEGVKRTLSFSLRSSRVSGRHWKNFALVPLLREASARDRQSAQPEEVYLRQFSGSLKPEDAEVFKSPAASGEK
The subject of series [10] is lymphocytes. Particulars: cited from earlier work.
For series [11], the system named is patients with steroid-dependent bronchial asthma. To be noted: cited from earlier work.
The conditions of series [12]: cited from earlier work.
The target in series [13] is hTRPV2 (Homo sapiens, UniProt Q9Y5S1). Particulars: cited from earlier work.
Series [14] has as its system avian coronavirus (IBV). Particulars: cited from earlier work.
For series [15], the target named is hTRPA1 (Homo sapiens, UniProt O75762). To be noted: cited from earlier work.
The test system of series [16] is human lung cancer A549. To be noted: in vitro and ex vivo; cited from earlier work.
Series [17] deals with leukemia K562 cells. Particulars: in vitro and ex vivo; cited from earlier work.
Series [18] concerns the target T1, TRPV1. To be noted: cited from earlier work. This is another data set of the same source.
Target sequence in this assay (Q8NER1 whole entry, species assumed): as the sequence (Q8NER1 whole entry) above
In series [19] the target is TRPV4 (Homo sapiens, UniProt Q9HBA0). To be noted: cited from earlier work.
Series [20] deals with TRAPA1 (Homo sapiens, UniProt O75762). To be noted: read-out: IC50, TRPA1 antagonist; cited from earlier work.
Series [21] concerns HEK293 cell. Particulars: cited from earlier work.
The test system of series [22] is P. aeruginosa. To be noted: cited from earlier work.
Series [23] has as its system DENV-2 (Dengue Virus 2). Particulars: cited from earlier work.
Series [24] deals with E. coli (MTCC 732). Particulars: cited from earlier work.
Series [25] deals with human whole blood. Particulars: 102 μg/mL; cited from earlier work.
Series [26] relates to human lung carcinoma (A549) cell line. To be noted: cited from earlier work.
The subject of series [27] is NCI-H358 cells. To be noted: cited from earlier work.
Series [28] concerns K. pneumoniae. Particulars: cited from earlier work.
For series [29], the target named is CB2 receptor (Homo sapiens, UniProt P34972). To be noted: unit inferred; read-out: Ki, CB2 receptor binding; cited from earlier work.
Series [30] deals with S. aureus. To be noted: cited from earlier work.
For series [31], the system named is Herpes simplex virus type 1 (HSV-1). Particulars: cited from earlier work.
In series [32] the test system is Human respiratory syncytial virus (hRSV). Particulars: 14 days prior to challenge and 3 days post challenge; cited from earlier work.
Series [33] concerns mice. To be noted: cited from earlier work.
Series [34] deals with H5N1 influenza A virus. Particulars: 5 mM (816 mg/L) to 15 mM (2,448 mg/L), 24 hrs post-infection; cited from earlier work.
Series [35] has as its system primary human bronchial epithelial cells. Particulars: pretreatment; cited from earlier work.
Series [36] deals with COPD patients. To be noted: orally 600 mg/day, cited from earlier work.
The subject of series [37] is CdCl2 treated human lung cells. To be noted: 2.5 mM; 75 μM CdCl2; cited from earlier work.
Series [38] deals with mice. Particulars: inhalation; cited from earlier work.
For series [39], the system named is human MonoMac6 cells. Particulars: cells pretreated; cited from earlier work.
Series [40] relates to asthma patients. Particulars: human, in vivo; cited from earlier work.
For series [41] the following is noted: in vivo; cited from earlier work.
Series [42] relates to rats. Particulars: 50 mg/kg orally each day; smoke 1 hr/day for 56 days; cited from earlier work.
Series [43] deals with guinea pigs. Particulars: pretreatment; cited from earlier work.
For series [44] the following is noted: 100 μM, in the presence of 2 mM N-acetyl cysteine; cited from earlier work.

In brackets after ≈: the same amount, converted by molar mass. Like-named read-outs stand apart in the source and are kept apart here.

Sequence of human TRPM8 (hTRPM8) (Q7Z2W7 whole entry): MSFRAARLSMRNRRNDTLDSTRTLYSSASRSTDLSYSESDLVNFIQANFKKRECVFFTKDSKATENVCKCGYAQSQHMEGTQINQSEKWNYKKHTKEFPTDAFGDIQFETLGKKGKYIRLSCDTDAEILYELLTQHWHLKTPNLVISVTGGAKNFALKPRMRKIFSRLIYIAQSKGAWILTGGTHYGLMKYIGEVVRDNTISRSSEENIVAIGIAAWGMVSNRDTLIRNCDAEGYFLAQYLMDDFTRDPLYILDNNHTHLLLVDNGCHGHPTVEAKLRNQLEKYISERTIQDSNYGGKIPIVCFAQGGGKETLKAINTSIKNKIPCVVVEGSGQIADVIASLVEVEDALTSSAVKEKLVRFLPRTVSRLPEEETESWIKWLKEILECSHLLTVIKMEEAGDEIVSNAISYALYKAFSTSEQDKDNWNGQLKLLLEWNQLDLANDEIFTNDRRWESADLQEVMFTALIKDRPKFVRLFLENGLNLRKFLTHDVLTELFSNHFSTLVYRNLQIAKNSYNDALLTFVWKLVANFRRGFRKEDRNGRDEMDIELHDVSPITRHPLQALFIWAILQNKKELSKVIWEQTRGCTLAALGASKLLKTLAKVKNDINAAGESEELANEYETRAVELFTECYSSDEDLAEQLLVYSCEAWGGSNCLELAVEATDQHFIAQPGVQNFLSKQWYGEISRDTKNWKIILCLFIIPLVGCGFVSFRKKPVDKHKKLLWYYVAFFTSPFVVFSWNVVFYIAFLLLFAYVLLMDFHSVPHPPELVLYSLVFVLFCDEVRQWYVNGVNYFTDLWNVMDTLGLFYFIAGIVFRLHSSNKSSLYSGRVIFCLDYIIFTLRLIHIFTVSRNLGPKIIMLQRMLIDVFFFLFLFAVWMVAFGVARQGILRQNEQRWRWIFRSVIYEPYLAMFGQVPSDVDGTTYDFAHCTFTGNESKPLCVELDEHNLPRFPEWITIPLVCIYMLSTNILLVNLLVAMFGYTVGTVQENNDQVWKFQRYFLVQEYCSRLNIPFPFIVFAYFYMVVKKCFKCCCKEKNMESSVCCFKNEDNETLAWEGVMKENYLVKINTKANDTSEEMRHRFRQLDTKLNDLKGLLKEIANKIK
Sequence of TRAPA1 (O75762 whole entry): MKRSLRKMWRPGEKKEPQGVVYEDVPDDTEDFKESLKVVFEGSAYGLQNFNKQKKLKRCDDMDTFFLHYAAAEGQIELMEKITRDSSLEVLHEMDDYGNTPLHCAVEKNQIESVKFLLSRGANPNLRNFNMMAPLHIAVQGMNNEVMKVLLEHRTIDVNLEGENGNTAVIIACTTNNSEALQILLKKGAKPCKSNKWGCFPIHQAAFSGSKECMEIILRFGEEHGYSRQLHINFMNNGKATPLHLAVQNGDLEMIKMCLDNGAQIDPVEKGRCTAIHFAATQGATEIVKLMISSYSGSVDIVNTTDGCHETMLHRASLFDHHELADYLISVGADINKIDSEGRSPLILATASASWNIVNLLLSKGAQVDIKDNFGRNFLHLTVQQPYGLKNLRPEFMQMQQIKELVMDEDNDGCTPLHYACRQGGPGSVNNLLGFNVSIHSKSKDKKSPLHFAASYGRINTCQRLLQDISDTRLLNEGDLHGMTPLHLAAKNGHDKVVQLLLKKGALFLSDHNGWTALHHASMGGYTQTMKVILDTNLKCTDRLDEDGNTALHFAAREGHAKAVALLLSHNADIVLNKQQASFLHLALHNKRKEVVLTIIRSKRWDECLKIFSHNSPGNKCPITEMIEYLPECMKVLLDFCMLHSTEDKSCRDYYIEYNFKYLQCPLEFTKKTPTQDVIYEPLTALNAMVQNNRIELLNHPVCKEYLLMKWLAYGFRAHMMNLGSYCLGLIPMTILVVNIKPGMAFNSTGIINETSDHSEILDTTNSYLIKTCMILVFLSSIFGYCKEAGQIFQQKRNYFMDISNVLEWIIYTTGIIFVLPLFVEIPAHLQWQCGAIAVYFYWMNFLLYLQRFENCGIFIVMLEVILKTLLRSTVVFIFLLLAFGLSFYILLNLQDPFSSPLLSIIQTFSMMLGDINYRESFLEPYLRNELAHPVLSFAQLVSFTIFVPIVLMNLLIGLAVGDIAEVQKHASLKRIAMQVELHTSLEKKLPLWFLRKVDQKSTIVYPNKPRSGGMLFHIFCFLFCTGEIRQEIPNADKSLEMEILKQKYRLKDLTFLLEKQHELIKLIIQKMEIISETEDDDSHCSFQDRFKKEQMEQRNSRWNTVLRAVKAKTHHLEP
Sequence of hTRPA1 (O75762 whole entry): as above
Sequence of hTRPV2 (Q9Y5S1 whole entry): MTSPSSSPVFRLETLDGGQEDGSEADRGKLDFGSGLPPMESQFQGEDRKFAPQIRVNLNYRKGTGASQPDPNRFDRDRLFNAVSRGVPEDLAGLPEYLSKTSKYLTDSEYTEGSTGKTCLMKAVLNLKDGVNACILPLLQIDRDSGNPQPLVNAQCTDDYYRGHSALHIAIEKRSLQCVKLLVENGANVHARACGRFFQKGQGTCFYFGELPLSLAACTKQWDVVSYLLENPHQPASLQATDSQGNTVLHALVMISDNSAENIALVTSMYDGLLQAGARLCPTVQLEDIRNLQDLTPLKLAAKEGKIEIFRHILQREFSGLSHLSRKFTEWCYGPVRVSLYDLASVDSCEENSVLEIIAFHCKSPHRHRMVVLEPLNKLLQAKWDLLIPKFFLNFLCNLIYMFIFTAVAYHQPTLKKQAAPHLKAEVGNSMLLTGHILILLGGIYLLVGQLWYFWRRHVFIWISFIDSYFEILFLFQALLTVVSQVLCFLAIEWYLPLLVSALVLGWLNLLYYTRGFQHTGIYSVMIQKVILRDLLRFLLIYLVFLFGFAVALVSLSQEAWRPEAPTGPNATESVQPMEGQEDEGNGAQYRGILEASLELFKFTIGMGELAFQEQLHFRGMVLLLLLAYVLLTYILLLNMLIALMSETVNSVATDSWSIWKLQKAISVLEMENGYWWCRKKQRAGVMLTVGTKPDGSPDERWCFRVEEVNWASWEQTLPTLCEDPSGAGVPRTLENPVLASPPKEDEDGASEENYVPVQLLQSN
Sequence of CB2 receptor (P34972 whole entry): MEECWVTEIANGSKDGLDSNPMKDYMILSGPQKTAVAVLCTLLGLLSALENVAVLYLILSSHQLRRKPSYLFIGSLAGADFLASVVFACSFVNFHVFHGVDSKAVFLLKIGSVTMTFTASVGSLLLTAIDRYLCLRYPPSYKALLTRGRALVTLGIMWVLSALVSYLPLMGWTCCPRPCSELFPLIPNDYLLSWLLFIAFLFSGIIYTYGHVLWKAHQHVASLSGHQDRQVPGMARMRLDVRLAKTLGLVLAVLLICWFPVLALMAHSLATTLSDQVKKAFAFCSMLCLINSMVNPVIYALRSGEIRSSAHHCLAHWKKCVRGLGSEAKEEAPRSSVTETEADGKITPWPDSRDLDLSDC

For the molecule `COc1ccc2cc3[n+](cc2c1OC)CCc1cc2c(cc1-3)OCO2` [berberine], in [1], the “cigarette smoke-induced airway inflammation and mucus production” value is listed as “inhibited”.
Broadly, the NOAEL is the highest tested level that showed no adverse finding. The term LD50 denotes the dose expected to kill half of the subjects tested. For orientation: IC50 means the concentration that inhibits the measured activity by half. Regarding `CC12CCC(CC1)C(C)(C)O2` [1,8-cineole], in series [2], the no observed adverse effect level (NOAEL) is 562.5 mg/kg. The “activation of hTRPM8” value in series [3] is given as “activates”. Also, in [4] (0.15 μg/ml), the “inhibition of IL-1β production by monocytes” value is listed as 61% and the “inhibition of TNFα production by monocytes” value is reported as 77%. Also, in series [4] (1.5 μg/mL), the “inhibition of IL-1β production in monocytes” value was 84%, the “inhibition of IL-6 production in monocytes” value is reported as 76%, the “inhibition of IL-8 production in monocytes” value is recorded as 65% and the “inhibition of TNFα production in monocytes” value is listed as 99%. For the same molecule, in series [5], the “factor NOAEL over daily inhaled dose” value is recorded as 697.5 times and the “NOAEL for a 62 kg adult human” value is listed as 34,875 mg per day. Moreover, in series [6] (day 4, healthy volunteers), the “production of LTB4 from monocytes ex vivo” value was −57.9% and the “production of PGE2 from monocytes ex vivo” value is −42.7%. Besides, in series [6] (day 4, patients with bronchial asthma, 200 mg 3 times/day), the “production of LTB4 from monocytes ex vivo” value is given as −40.3%. For the same molecule, the “production of PGE2 from monocytes ex vivo” value in [6] (day 4, patients with bronchial asthma) is −31.3%. The “improvement of airway resistance” value in series [7] (treatment duration eight weeks) was −21%. Further, in series [7] (treatment duration one week), the “improvement of airway resistance” value is recorded as −23%. The “LPS-stimulated 8-isoprostanes” value in series [8] (10^−5 M) was −84%. Besides, in series [8] (10^−6 M), the “LPS-stimulated 8-isoprostanes” value is listed as −42%. Besides, the “activation of hTRPV1” value in series [9] was “did not activate”. Moreover, in [10] (0.15 μg/ml), the “inhibition of IL-1β production by lymphocytes” value was 36% and the “inhibition of TNF-α production by lymphocytes” value was 16%. Besides, in series [10] (1.5 μg/mL), the “inhibition of IL-4 production in lymphocytes” value is given as 70%; the “inhibition of IL-5 production in lymphocytes” value is given as 65%; the “inhibition of TNFα production in lymphocytes” value is 92%; the “inhibition of cytokine production in lymphocytes, second value (cytokine not named)” value is 84%. Besides, the “mean reduction in daily prednisolone dosage” value in series [11] (200 mg 3 times per day orally, 12 weeks, placebo 0.91 mg) was 3.75 mg. The “reductions in daily prednisolone dosage tolerated” value in series [11] (200 mg 3 times per day orally, 12 weeks, placebo 7%) was 36%. In addition, in series [11] (1,8-cineole group, placebo four out of 16), the “patients achieving a reduction of oral steroids” value was “Twelve of 16”. In addition, the LD50 in series [12] (in vivo) is recorded as 2,480 mg/kg. The “LD50” value in series [12] (oral, rat) is reported as 2,480 mg/kg. Further, the “estimated concentration in the epithelial lining fluid of the lungs” value (from here on “estimated concentration”) (human) is 614 µg/mL. The “activation of hTRPV2” value in series [13] is “did not activate”. Besides, in series [14], the 50% inhibitory concentration (IC50) is 610000 nM. In addition, the “activation of hTRPA1” value in [15] was “did not activate”.
Consider `CCNC(=O)CC[C@H](N)C(=O)O` [theanine, L-theanine], for which the “growth of A549 cells” value in series [16] is reported as “significantly suppressed”. Besides, the “Concentration in Epithelial Lining Fluid” value (human) worked out at 2670 µg/mL. Moreover, the “growth of K562 cells” value in [17] is “significantly suppressed”.
In the case of `COc1cc(O)cc(O)c1C(=O)/C=C/c1ccccc1` [cardamonin], in series [18], the “effect on TRPV1” value is listed as “not affecting”. Besides, in series [19], the “effect on TRPV4” value is “not affecting”. Further, the IC50 in [20] is 454 nM. The HEK293 cell viability entry in series [21] is recorded as “did not significantly reduce”.
One may read the MIC as the smallest concentration in the dilution series that meets the test's criterion for growth inhibition. The term Ki denotes the dissociation constant of the complex between target and ligand, obtained from inhibition or displacement. Consider `C=C1CC/C=C(\C)CC[C@@H]2[C@@H]1CC2(C)C` [β-caryophyllene], for which the MIC in [22] was 7 µM (≈ 1.43 µg/mL); in series [28] it was 14 µM (≈ 2.86 µg/mL); in [30], 3 µM (≈ 0.613 µg/mL). In addition, the selectivity index in series [23] (DENV-2, non-cytostatic) is 71.1. In addition, the IC50 in [23] is 22500 nM; in series [31], 250 nM. Further, the “IC50, DENV-2” value in series [23] is 4.6 µg/mL (≈ 22.5 µM). The “factor NOAEL over daily inhaled dose” value in [5] worked out at 868 times. Also, in [5], the “NOAEL for a 62 kg adult human” value is listed as 43,400 mg per day. For the same molecule, the “Minimum Inhibitory Concentration (MIC)” value in series [24] was 9.0 ± 2.2 µM. The “LPS-stimulated IL-1β and TNF-α expression” value in series [25] is listed as “inhibits”. Besides, the “cytotoxic IC50” value was 28.18 ± 1.96 µg/mL in [26] and 31.19 ± 2.01 µg/mL in [27]. Further, the Ki in series [29] was 155 nM. In series [12] (in vivo), the LD50 is > 5,000 mg/kg. The “Concentration in Epithelial Lining Fluid” value (Table A2 Preferred Base Viral Nebulizer Liquid, single 2 mL dose, 25 mL ELF, 100 percent retained) came to 600 µg/mL; the “Concentration in Epithelial Lining Fluid” value (Table A3 Preferred Viral Respiratory Challenged Nebulizer Liquid, single 2 mL dose, 25 mL ELF, 100 percent retained) is 970 µg/mL; the “Concentration in Epithelial Lining Fluid” value (Table A4 Preferred Bacterial Pneumonia Nebulizer Liquid, single 2 mL dose, 25 mL ELF, 100 percent retained) amounted to 1450 µg/mL; the “Concentration in Epithelial Lining Fluid” value (Table A6 Preferred Base Nebulizer Liquid with Amino Acids, single 2 mL dose, 25 mL ELF, 100 percent retained) was 1450 µg/mL.
Consider `OC[C@@H](O)[C@H](O)[C@@H](O)CO` [xylitol], for which the “lung virus titers versus phosphate-buffered saline controls” value in series [32] is given as “significantly greater reductions”.
`Oc1ccc(C=Cc2cc(O)cc(O)c2)cc1` [Resveratrol]: the “cigarette smoke-induced lung inflammation” value in series [33] is listed as “decreased”.
As for `CC(=O)N[C@@H](CS)C(=O)O` [N-acetyl cysteine], the “H5N1-induced cytopathogenic effects, virus-induced apoptosis, and viral yields” value in [34] was “reduces”. In series [35], the “Ca^2+ influx induced by cigarette smoke extract” value was “prevented”. Besides, the “sputum eosinophil cationic protein concentrations” value in series [36] (COPD patients) was “reduced”. In [36], the “lung lavage glutathione levels” value was “increased” and the “superoxide production by alveolar macrophages” value is reported as “reduced”. In addition, the “morphology and viability of CdCl2 treated human lung cells” value in series [37] is “restored the morphology and viability”. Also, the LD50 in series [12] (in vivo) is 5050 mg/kg. Besides, the “LD50” value in series [12] (oral, rat) is reported as 5,050 mg/kg. Besides, the “estimated concentration” value (human) was 889 µg/mL. In [38], the “lung fibrosis induced by bleomycin” value is listed as “inhibited”.
For the molecule `N[C@@H](CCC(=O)N[C@@H](CS)C(=O)NCC(=O)O)C(=O)O` [glutathione, γ-L-glutamyl-L-cysteinyl-glycine], the “cigarette smoke extract-mediated IL-8 release” value in [39] was “significantly inhibited”. Besides, in [40], the “change from baseline FEV1” value is −19% and the “change from baseline total pulmonary resistance” value is on record as “+61%”. In series [41], the “adverse effects of aerosol administration” value is on record as “no adverse effects” and the “period epithelial lung fluid glutathione remained elevated” value was 2 h. In addition, the LD50 in [12] (in vivo) was 5000 mg/kg. The “LD50” value in series [12] (oral, mouse) is listed as 5,000 mg/kg. The “estimated concentration” value (human) is 889 µg/mL.
Take epigallocatechin-3-gallate: in series [42], the “cigarette smoke-induced oxidative stress and neutrophilic inflammation, airway mucus production and collagen deposition” value is reported as “ameliorated”. Further, in [43], the “bronchoalveolar lavage fluid IL-8” value is reported as “significantly reduced” and the “bronchoalveolar lavage fluid LTB4” value is “significantly reduced”. Also, the “increase of cellular uptake” value in series [44] is listed as 2.5 times.
